≈ marks a conversion by molar mass, not a printed value. Each block holds one molecule with its values, some of them ahead of it. *1 amine or outer side, *2 acyl side, *3 side chain or, on linkers, in order; H or OH if unused. Where a SMILES comes first, the peptide text is derived from it. [ ]: non-standard residue; d: D form. The star is where a group is joined. X1 = C[C@H](N[*:1])C(=O)C(=O)[*:2]; NMeT = CN[C@H](C(=O)O)[C@@H](C)O; Decanoyl = CCCCCCCCCC(=O)*; βAla = NCCC(=O)O
How the values were obtained:
[1] = Inhibition of LepB (unknown origin); design: species or system Bacteria
[2] = system: Staphylococcus aureus; experiment: Antibacterial activity against methicillin-resistant Staphylococcus aureus assessed as bacterial growth inhibition; assay type: functional
[3] = system: Staphylococcus aureus; experiment: Antibacterial activity against methicillin-resistant Staphylococcus aureus assessed as bacterial growth inhibition measured after 24 hrs; assay type: functional
[4] = Inhibition of Streptococcus pneumoniae Signal peptidase I using decanoyl-k(DABCYL)-TPTAKAASKKD-D(EDANS)-NH2 as substrate by fluorescence-based analysis
[5] = Inhibition of Escherichia coli Signal peptidase I using decanoyl-k(DABCYL)-TPTAKAASKKD-D(EDANS)-NH2 as substrate by fluorescence-based analysis
[6] = system: Pseudomonas aeruginosa; experiment: Antibacterial activity against wild type Pseudomonas aeruginosa PA14 assessed as inhibition of bacterial growth; assay type: functional
[7] = system: Pseudomonas aeruginosa; experiment: Antibacterial activity against wild type Pseudomonas aeruginosa PA14 assessed as inhibition of bacterial growth […] by CLSI based protocol; assay type: functional
[8] = Inhibition of Staphylococcus aureus SpsB incubated for 15 mins by fluorescence based analysis
[9] = system: Staphylococcus epidermidis; experiment: Antibacterial activity against Staphylococcus epidermidis ATCC 35984 assessed as bacterial cell growth inhibition measured after 18 hrs by CLSI based broth microdilution method; assay type: functional
[10] = system: Escherichia coli; experiment: Antibacterial activity against Escherichia coli MG1655 assessed as bacterial cell growth inhibition measured after 18 hrs by CLSI based broth microdilution method; assay type: functional
[11] = system: Staphylococcus epidermidis; experiment: Antibacterial activity against Staphylococcus epidermidis assessed as bacterial cell growth inhibition; assay type: functional
[12] = system: Escherichia coli; experiment: Antibacterial activity against Escherichia coli assessed as bacterial cell growth inhibition; assay type: functional
[13] = system: Staphylococcus aureus; experiment: Antibacterial activity against Staphylococcus aureus assessed as bacterial cell growth inhibition; assay type: functional
[14] = system: Escherichia coli; experiment: Antibacterial activity against Escherichia coli ATCC 25922 assessed as bacterial cell growth inhibition; assay type: functional
[15] = system: Staphylococcus aureus; experiment: Antibacterial activity against Staphylococcus aureus 8325 assessed as bacterial cell growth inhibition measured after 18 hrs by CLSI based broth microdilution method; assay type: functional
[16] = system: Staphylococcus aureus; experiment: Antibacterial activity against Staphylococcus aureus NCTC 8325 assessed as bacterial cell growth inhibition by CLSI based broth microdilution method; assay type: functional
[17] = system: Staphylococcus epidermidis; experiment: Antibacterial activity against Staphylococcus epidermidis assessed as bacterial cell growth inhibition by CLSI based broth microdilution method; assay type: functional

SMILES: O=C(Nc1ccc2c(c1)OC(F)(F)O2)Nc1ccc(Cl)c(C(F)(F)F)c1
MIC [2]: 0.12 µg/mL (≈ 0.304 µM) | MIC [3]: 0.3 µM (≈ 0.118 µg/mL)

SMILES: CCCC(C)/C=C(/C)C(=O)OC(CCCCCCC/C=C/C(=O)NCCC(=O)N[C@@H](CS(=O)(=O)O)C(=O)N(C)[C@@H]1C(=O)N[C@@H](C)C(=O)N[C@H](C(=O)O)Cc2ccc(O)c(c2)-c2cc1cc(O)c2O[C@@H]1O[C@@H](C)[C@H](OS(=O)(=O)O)[C@@H](OS(=O)(=O)O)[C@H]1O)CCC(C)C (stereo partly drawn)
IC50 [4]: 2400 nM | IC50 [5]: 110 nM

SMILES: Cc1nc(-c2ccc(C(C)(C)C)cc2)nc(C)c1C(=O)N[C@@H](CCN)C(=O)N(C)[C@@H]1C(=O)N[C@@H](C)C(=O)N[C@H](C(=O)NCC#N)Cc2cc(OCCN)cc(c2)-c2cc1ccc2OCCN
MIC [6]: 1.81 µg/mL (≈ 2 µM) | MIC [7]: 2 µM (≈ 1.81 µg/mL)

SMILES: CNC(=O)c1cc(Oc2ccc(NC(=O)Nc3ccc(Cl)c(C(F)(F)F)c3)cc2)ccn1 [SORAFENIB]
MIC [2]: 1.39 µg/mL (≈ 2.99 µM) | MIC [3]: 3 µM (≈ 1.39 µg/mL)

SMILES: CCCCCCCCCC(=O)N[C@@H](CC(C)C)C(=O)N[C@H](C(=O)N1CCC[C@H]1C(=O)N(C)[C@H](C(=O)N[C@@H](C)C(=O)N[C@@H](CC(N)=O)C(=O)N[C@@H](C)C(=O)C(=O)NCCC(=O)N[C@@H](CC(=O)O)C(=O)O)[C@@H](C)O)[C@@H](C)O (Decanoyl-LTP[NMeT]AN[X1][βAla]D-OH)
IC50 [8]: 100 nM

SMILES: CCCCCCCCCCCCCCCC(=O)N(C)[C@H](CO)C(=O)N[C@H](C)C(=O)NCC(=O)N(C)[C@@H]1C(=O)N[C@@H](C)C(=O)N[C@H](C(=O)O)Cc2ccc(O)c(c2)-c2cc1ccc2O [ARYLOMYCIN C16]
MIC [9]: 0.5 µM (≈ 0.441 µg/mL) | MIC [10]: 16 µM (≈ 14.1 µg/mL) | MIC [11]: 0.43 µg/mL (≈ 0.488 µM) | MIC [12]: 13.9 µg/mL (≈ 15.7 µM)

Further lines, results first:

IC50 [1]: 180 nM
SMILES: C=CCOC(=O)C1=CS[C@H]2[C@@H]([C@@H](C)O)C(=O)N12

IC50 [1]: 70 nM
SMILES: C=CCOC(=O)C1=CS[C@H]2[C@@H]([C@@H](C)OC(C)=O)C(=O)N12

MIC [6]: 1.78 µg/mL (≈ 2 µM) | MIC [7]: 2 µM (≈ 1.78 µg/mL) | MIC [11]: 0.25 µg/mL (≈ 0.281 µM) | MIC [13]: 0.06 µg/mL (≈ 0.0674 µM) | MIC [14]: 0.125 µg/mL (≈ 0.14 µM)
SMILES: Cc1nc(-c2ccc(C(C)(C)C)cc2)ncc1C(=O)N[C@@H](CCN)C(=O)N(C)[C@@H]1C(=O)N[C@@H](C)C(=O)N[C@H](C(=O)NCC#N)Cc2cc(OCCN)cc(c2)-c2cc1ccc2OCCN

MIC [9]: 1 µM (≈ 0.825 µg/mL) | MIC [15]: > 128 µM | MIC [10]: > 128 µM | MIC [11]: 0.81 µg/mL (≈ 0.982 µM) | MIC [13]: 104 µg/mL (≈ 126 µM) | MIC [12]: 104 µg/mL (≈ 126 µM)
SMILES: CC(C)CCCCCCCCC(=O)N(C)[C@H](CO)C(=O)N[C@H](C)C(=O)NCC(=O)N(C)[C@@H]1C(=O)N[C@@H](C)C(=O)N[C@H](C(=O)O)Cc2ccc(O)c(c2)-c2cc1ccc2O [ARYLOMYCIN A2]

MIC [16]: 16 µg/mL (≈ 17.4 µM) | MIC [17]: 16 µg/mL (≈ 17.4 µM)
SMILES: C[C@@H]1NC(=O)[C@@H](N(C)C(=O)CNC(=O)[C@@H](C)NC(=O)[C@@H](CO)NC(=O)CCCCCCCCc2ccc(-c3ccccc3)cc2)c2ccc(O)c(c2)-c2cc(ccc2O)C[C@@H](C(=O)O)NC1=O
